Results taken from ChEMBL document CHEMBL1158374, “Exploring QSAR and QAAR for inhibitors of cytochrome P450 2A6 and 2A5 enzymes using GFA and G/PLS techniques” (Eur J Med Chem, 2009).

Assays:
Cytochrome P450 2A5 = target: T1, Cytochrome P450 2A5 (Mus musculus, UniProt P20852); experiment: Inhibition of mouse CYP2A5
T1 sequence (P20852 whole entry): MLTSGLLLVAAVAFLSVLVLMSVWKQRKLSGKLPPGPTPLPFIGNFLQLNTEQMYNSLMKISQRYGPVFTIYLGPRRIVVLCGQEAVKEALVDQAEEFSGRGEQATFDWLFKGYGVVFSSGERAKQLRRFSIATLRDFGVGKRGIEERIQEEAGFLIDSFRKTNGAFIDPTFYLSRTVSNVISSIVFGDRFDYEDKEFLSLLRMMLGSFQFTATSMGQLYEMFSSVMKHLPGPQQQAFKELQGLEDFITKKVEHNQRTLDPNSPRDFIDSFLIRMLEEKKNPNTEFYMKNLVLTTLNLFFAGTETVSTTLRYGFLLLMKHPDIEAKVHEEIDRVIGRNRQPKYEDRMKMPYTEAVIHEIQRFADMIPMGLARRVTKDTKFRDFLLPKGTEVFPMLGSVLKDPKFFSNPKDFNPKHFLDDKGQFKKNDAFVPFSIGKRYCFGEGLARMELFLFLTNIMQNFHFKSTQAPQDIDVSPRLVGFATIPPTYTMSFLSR

Cytochrome P450 2A6 = target: T2, Cytochrome P450 2A6 (Homo sapiens, UniProt P11509); experiment: Inhibition of human CYP2A6
T2 sequence (P11509 whole entry): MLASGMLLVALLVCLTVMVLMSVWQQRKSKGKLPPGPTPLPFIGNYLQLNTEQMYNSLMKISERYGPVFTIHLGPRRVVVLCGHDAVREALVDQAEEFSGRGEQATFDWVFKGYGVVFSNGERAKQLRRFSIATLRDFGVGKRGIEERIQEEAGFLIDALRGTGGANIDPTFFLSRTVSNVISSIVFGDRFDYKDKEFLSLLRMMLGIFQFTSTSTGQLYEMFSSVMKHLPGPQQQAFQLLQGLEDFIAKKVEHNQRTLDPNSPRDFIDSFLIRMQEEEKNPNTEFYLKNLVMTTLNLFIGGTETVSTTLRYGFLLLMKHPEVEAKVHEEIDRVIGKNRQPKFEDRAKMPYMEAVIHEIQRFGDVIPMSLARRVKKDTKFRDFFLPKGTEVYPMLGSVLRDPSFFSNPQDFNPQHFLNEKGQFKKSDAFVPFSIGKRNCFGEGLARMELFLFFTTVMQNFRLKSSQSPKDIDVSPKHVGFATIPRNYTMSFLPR

SMILES | IC50 (Cytochrome P450 2A5) [µM] | IC50 (Cytochrome P450 2A6) [µM]
CN1C(=O)CCC1c1cccnc1 (centres undefined) | 1500 | 
Clc1ccc(-c2ccccc2)cc1 | 13 | 
CN1CCC[C@H]1c1cccnc1 [NICOTINE] | 160 | 579
